Assays:
TFEB = TFEB nuclear translocation assay; assay type: cell-based; conditions: Homo sapiens; HeLa wt or HeLa TRPML1 KO cells, treated for 2 hrs; ratio of nuclear to ring-region TFEB intensity
Method in brief: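 HeLa wild-type or TRPML1 KO cells treated 2 h with compound at 37 °C, PFA-fixed, immunostained for TFEB (Alexa 488) with Hoechst nuclei. Imaged at ×20, four fields/well. Value is ratio of nuclear to perinuclear-ring TFEB intensity, with nuclei counts.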

THP-1 cells = assay: Lamp1 lysosomal exocytosis assay; assay type: cell-based; conditions: Homo sapiens, 55 min, 55 min incubation, top dose 20 μM
Method in brief: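 THP-1 cells (1e5/well) exposed to a 7-point 3-fold compound series, top final 20 μM, for 55 min at 37°C. Surface Lamp1 then stained with Lamp1-PE on ice in buffer containing 80 μM Dynasore, and read by flow cytometry as PE geometric mean on live, sytox-negative singlets.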

Row | Structure (SMILES) | EC50 (TFEB) [µM] | EC50 (THP-1 cells) [µM]
1 | CN(C)S(=O)(=O)c1ccc(S(=O)(=O)N2CC3(CCN(C4CCOC4)CC3)c3ccccc32)cc1 (stereo not shown) [Compound I-103, N,N-dimethyl-4-{[1′-(oxolan-3-yl)-1,2-dihydrospiro[indole-3,4′-piperidin]-1-yl]sulfonyl}benzene-1-sulfonamide] | 2.01 to 8 | ≥ 5.01
2 | Cc1ccc2c(c1)N(S(=O)(=O)c1ccc(S(=O)(=O)N(C)C)cc1)CC21CCCC1 [Compound I-79, N,N-dimethyl-4-((6′-methylspiro[cyclopentane-1,3′-indolin]-1′-yl)sulfonyl)benzenesulfonamide] | ≤ 2 | ≤ 0.5
3 | CN(C)S(=O)(=O)c1ccc(S(=O)(=O)N2CC3(CCCCC3)c3ccccc32)cc1 [Compound I-99, 4-({1′,2′-dihydrospiro[cyclohexane-1,3′-indol]-1′-yl}sulfonyl)-N,N-dimethylbenzene-1-sulfonamide] | ≤ 2 | ≤ 0.5
4 | CN(C)S(=O)(=O)c1ccc(S(=O)(=O)N2CC3(CN(CC4CCOCC4)C3)c3ccccc32)cc1 [Compound I-101, N,N-dimethyl-4-({1-[(oxan-4-yl)methyl]-1′,2′-dihydrospiro[azetidine-3,3′-indol]-1′-yl}sulfonyl)benzene-1-sulfonamide] | 2.01 to 8 | ≥ 5.01
5 | O=S(=O)(c1ccc(C(F)F)cc1)N1CC2(CCN(Cc3ccccc3)CC2)c2ccccc21 [Compound I-168, 1′-benzyl-1-[4-(difluoromethyl)benzenesulfonyl]-1,2-dihydrospiro[indole-3,4′-piperidine]] | ≤ 2 | ≥ 5.01
6 | CN(C)S(=O)(=O)c1ccc(S(=O)(=O)N2CC3(CCN(C(=O)C(C)(C)C)C3)c3ccccc32)cc1 (stereo not shown) [Compound I-73, 4-{[1′-(2,2-dimethylpropanoyl)-1,2-dihydrospiro[indole-3,3′-pyrrolidin]-1-yl]sulfonyl}-N,N-dimethylbenzene-1-sulfonamide] | 2.01 to 8 | ≥ 5.01
7 | O=S(=O)(c1ccc(C(F)F)cc1)N1CC2(CCN(Cc3cnccn3)CC2)c2ccccc21 [Compound I-163, 1-[4-(difluoromethyl)benzenesulfonyl]-1′-[(pyrazin-2-yl)methyl]-1,2-dihydrospiro[indole-3,4′-piperidine]] | ≤ 2 | ≥ 5.01
8 | O=S(=O)(c1ccc(C(F)F)cc1)N1CC2(CCN(Cc3ccccn3)CC2)c2ccccc21 [Compound I-164] | ≤ 2 | ≥ 5.01
9 | CN(C)S(=O)(=O)c1ccc(S(=O)(=O)N2CC3(CCCC3)n3nccc32)cc1 [Compound I-124, 4-({1′,2′-dihydrospiro[cyclopentane-1,3′-pyrazolo[1,5-a]imidazol]-1′-yl}sulfonyl)-N,N-dimethylbenzene-1-sulfonamide] | ≥ 10 | ≥ 5.01
10 | CC1(C)Cc2cc(S(=O)(=O)N3CC4(CCCC4)c4ccccc43)ccc2O1 [Compound I-2, 1′-[(2,2-dimethyl-2,3-dihydro-1-benzofuran-5-yl)sulfonyl]-1′,2′-dihydrospiro[cyclopentane-1,3′-indole]] | 2.01 to 8 | ≥ 5.01
11 | CN(C)S(=O)(=O)c1ccc(S(=O)(=O)N2CC3(CCCC3)Oc3ccccc32)cc1 [Compound I-116, 4-((3,4-dihydrospiro[1,4-benzoxazine-2,1′-cyclopentan]-4-yl}sulfonyl)-N,N-dimethylbenzene-1-sulfonamide] | ≤ 2 | ≥ 5.01
12 | O=S(=O)(c1ccc(C(F)F)cc1)N1CC2(CCN(Cc3ncccn3)CC2)c2ccccc21 [Compound I-167, 1-[4-(difluoromethyl)benzenesulfonyl]-1′-[(pyrimidin-2-yl)methyl]-1,2-dihydrospiro[indole-3,4′-piperidine]] | 8.01 to 9.99 | ≥ 5.01
13 | CC(F)(F)CN1CCC2(CC1)CN(S(=O)(=O)c1ccc(C(F)F)cc1)c1ccccc12 [Compound I-122, 1-((4-(difluoromethyl)phenyl)sulfonyl)-1′-(2,2-difluoropropyl)spiro[indoline-3,4′-piperidine]] | ≤ 2 | ≥ 5.01

Other lines, results leading:

Row | EC50 (TFEB) [µM] | EC50 (THP-1 cells) [µM] | Structure (SMILES)
14 | ≤ 2 | ≥ 5.01 | COc1cccc(NC(=O)N2CCC3(CC2)CN(S(=O)(=O)c2ccc(C(F)F)cc2)c2ccccc23)c1OC [Compound I-228, 1-((4-(difluoromethyl)phenyl)sulfonyl)-N-(2,3-dimethoxyphenyl)spiro[indoline-3,4′-piperidine]-1′-carboxamide]
15 | ≤ 2 | ≤ 0.5 | CCOC[C@]1(C)CC[C@]2(CC1)CN(S(=O)(=O)c1ccc(C(F)F)cc1)c1ccccc12 [Compound I-137, (1r,4r)-1′-[4-(difluoromethyl)benzenesulfonyl]-4-(ethoxymethyl)-4-methyl-1′,2′-dihydrospiro[cyclohexane-1,3′-indole]]
16 | 2.01 to 8 | ≥ 5.01 | COc1ccc(NC(=O)N2CCC3(CC2)CN(S(=O)(=O)c2ccc(C(F)F)cc2)c2ccccc23)c(OC)c1 [Compound I-227, 1-((4-(difluoromethyl)phenyl)sulfonyl)-N-(2,4-dimethoxyphenyl)spiro[indoline-3,4′-piperidine]-1′-carboxamide]
17 | ≤ 2 | ≤ 0.5 | O=C(OCc1ccccc1)N1CCC2(CC1)CN(S(=O)(=O)c1ccc(C(F)(F)C3CC3)cc1)c1ccccc12 [Compound I-139, benzyl 1-((4-(cyclopropyldifluoromethyl)phenyl)sulfonyl)spiro[indoline-3,4′-piperidine]-1′-carboxylate]
18 | ≥ 10 | ≥ 5.01 | O=C(OCc1ccccc1)N1CCC2(CC1)CN(C(=O)c1ccccc1)c1ccccc12 [Compound I-184, benzyl 1-benzoyl-1,2-dihydrospiro[indole-3,4′-piperidine]-1′-carboxylate]
19 | ≤ 2 | ≤ 0.5 | O=C(OCc1ccccc1)N1CCC2(CC1)CN(S(=O)(=O)c1ccc(S(=O)(=O)C(F)F)cc1)c1ccccc12 [Compound I-186, benzyl 1-((4-((difluoromethyl)sulfonyl)phenyl)sulfonyl)spiro[indoline-3,4′-piperidine]-1′-carboxylate]
20 | ≤ 2 | ≤ 0.5 | CN(C)S(=O)(=O)c1ccc(S(=O)(=O)N2CC3(CCN(C(=O)OCc4ccccc4)CC3)c3ccccc32)cc1 [Compound I-104]
21 | ≤ 2 | ≥ 5.01 | CN(C)S(=O)(=O)c1ccc(S(=O)(=O)N2CC3(CN(C(=O)OCc4ccccc4)C3)c3ccccc32)cc1 [Compound I-105, benzyl 1′-[4-(dimethylsulfamoyl)benzenesulfonyl]-1′,2′-dihydrospiro[azetidine-3,3′-indole]-1-carboxylate]
22 | ≤ 2 | ≤ 0.5 | O=C(OCc1ccccc1)N1CCC2(CC1)CN(S(=O)(=O)c1ccc(C(F)F)cc1)c1ccccc12 [Compound I-81]
23 | ≤ 2 | ≥ 5.01 | O=C(OCc1ccccc1)N1CCC2(CC1)CN(S(=O)(=O)c1ccc(C(F)F)cc1)c1ccc(F)cc12 [Compound I-132]
24 | ≥ 10 | ≥ 5.01 | O=C(OCc1ccccc1)N1CCC2(CC1)CN(C(=O)Nc1ccc(C(F)F)cc1)c1ccccc12 [Compound I-247, benzyl 1-((4-(difluoromethyl)phenyl)carbamoyl)spiro[indoline-3,4′-piperidine]-1′-carboxylate]
25 | ≤ 2 | 0.51 to 1 | O=C(NC1CCOc2ccccc21)N1CCC2(CC1)CN(S(=O)(=O)c1ccc(C(F)F)cc1)c1ccccc12 (stereo not shown) [Compound I-223, N-(chroman-4-yl)-1-((4-(difluoromethyl)phenyl)sulfonyl)spiro[indoline-3,4′-piperidine]-1′-carboxamide]
26 | ≤ 2 | ≤ 0.5 | O=C(CCc1ccccc1)N1CCC2(CC1)CN(S(=O)(=O)c1ccc(C(F)F)cc1)c1ccccc12 [Compound I-174, 1-(1-((4-(difluoromethyl)phenyl)sulfonyl)spiro[indoline-3,4′-piperidin]-1′-y1)-3-phenylpropan-1-one]
27 | ≥ 10 | ≥ 5.01 | COc1ccc(NC(=O)N2CCC3(CC2)CN(S(=O)(=O)c2ccc(C(F)F)cc2)c2ccccc23)cc1OC [Compound I-226, 1-((4-(difluoromethyl)phenyl)sulfonyl)-N-(3,4-dimethoxyphenyl)spiro[indoline-3,4′-piperidine]-1′-carboxamide]
28 | ≤ 2 | ≥ 5.01 | O=C(OCc1ccccc1)N1CCC2(CC1)CN(S(=O)(=O)c1ccc(C(F)F)cc1)c1c(F)cccc12 [Compound I-133, benzyl 1-((4-(difluoromethyl)phenyl)sulfonyl)-7-fluorospiro[indoline-3,4′-piperidine]-1′-carboxylate]
29 | ≥ 10 | ≥ 5.01 | O=C(OCc1ccccc1)N1CCC2(CC1)CN(C(=O)Cc1ccc(C(F)F)cc1)c1ccccc12 [Compound I-246, benzyl 1-(2-(4-(difluoromethyl)phenyl)acetyl)spiro[indoline-3,4′-piperidine]-1′-carboxylate]
30 | ≤ 2 | ≤ 0.5 | O=C(OCc1ccccc1)N1CCC2(CC1)CN(S(=O)(=O)c1ccc(C(F)F)cc1)c1cccc(F)c12 [Compound I-130, benzyl 1-[4-(difluoromethyl)benzenesulfonyl]-4-fluoro-1,2-dihydrospiro[indole-3,4′-piperidine]-1′-carboxylate]
31 | ≤ 2 | 0.51 to 1 | O=C(OCc1cccnc1)N1CCC2(CC1)CN(S(=O)(=O)c1ccc(C(F)F)cc1)c1ccccc12 [Compound I-158, (pyridin-3-yl)methyl 1-[4-(difluoromethyl)benzenesulfonyl]-1,2-dihydrospiro[indole-3,4′-piperidine]-1′-carboxylate]
32 | 2.01 to 8 | ≥ 5.01 | O=S(=O)(c1ccc(OC(F)(F)F)cc1)N1CC2(CCCC2)c2ccccc21 [Compound I-31, 1′-[4-(trifluoromethoxy)benzenesulfonyl]-1′,2′-dihydrospiro[cyclopentane-1,3′-indole]]
